# Test results published in patent US3937695A, “P-Glu-Trp-Ser-Tyr-D-Lys-Leu-Arg-Pro-Gly-NH2 and intermediates” (American Home Products Corporation, priority 1974, dated 1976).
# Where a SMILES comes first, the peptide text is derived from it. [ ]: non-standard residue; d: D form. pGlu = O=C1CC[C@@H](C(=O)O)N1
# System: ovulation in female rats
# Test: Anti-ovulatory test in proestrous female rats
# Format: in vivo, Sprague-Dawley rats
# Experimental: In vivo tests were conducted with female rats (225 to 250 grams body weight). […] The test was conducted with mature Sprague-Dawley rats, unanesthetized, proestrous rats. On the afternoon of proestrous, each rat in the test group received six subcutaneous injections of the acetate salt of formula I in corn oil, each injection being given a half hour following the previous injection. The rats are sacrificed the next morning and the number of animals ovulating and the number of ova shed are recorded following the procedure described by E. S. France, Neuroendocrinology 6, pp 77-89 (1970). The absence of or a significant decrease in the number of ova is the criterion for an anti-ovulation effect.
smiles,measurement,setting,value
"CC(C)C[C@H](NC(=O)[C@@H](CCCCN)NC(=O)[C@H](Cc1ccc(O)cc1)NC(=O)[C@H](CO)NC(=O)[C@H](Cc1c[nH]c2ccccc12)NC(=O)[C@@H]1CCC(=O)N1)C(=O)N[C@@H](CCCNC(=N)N)C(=O)N1CCC[C@H]1C(=O)NCC(N)=O [Example 3, L-Pyroglutamyl-L-tryptophyl-L-seryl-L-tyrosyl-D-lysyl-L-leucyl-L-arginyl-L- prolyl-glycinamide] ([pGlu]WSY[dK]LRPG-NH2)",Inhibition of ovulation,"1 mg per injection, six subcutaneous injections in corn oil, half an hour apart, on the afternoon of proestrous, rats sacrificed next morning",complete inhibition of ovulation
same,Ovulation inhibition,"mature unanesthetized proestrous female Sprague-Dawley rats (225 to 250 g), dose of about 24 mg/kg, subcutaneous in corn oil",all of the rats tested
